Values joined by “and” are separate entries in the source; they are usually repeats but may differ in a detail not shown here. Equal values may be shown once. Inconclusive results are not listed.
Tested on: HT29 intrarenal xenograft, nude mice, tumor weight change
Experiment: NCI In Vivo Anticancer Drug Screen. Data for tumor model HT29;CX-1 Human Adenocarcinoma (MER+) (intrarenal inoculation) in NU/NU BALB/C (nude) mice
Details: endpoint: mean tumor weight change, higher = larger tumour
Procedure: The antitumor activity of compounds was measured in mice bearing transplantable tumors. Survival or tumor size were measured and the results are expressed as the measurement made in the treated group (T) divided by the measurement made in the vehicle treated control group (C). The tumor model used in this assay is HT29;CX-1 Human Adenocarcinoma (MER+) (intrarenal inoculation) in NU/NU BALB/C (nude) mice

[1] = dose: 25.0 mg/kg/injection, schedule: Q04DX004 (sc), vehicle: saline
[2] = dose: 100.0 mg/kg/injection, schedule: Q04DX004 (sc), vehicle: saline
[3] = dose: 300.0 mg/kg/injection, schedule: Q04DX004 (sc), vehicle: saline with Tween-80
[4] = dose: 600.0 mg/kg/injection, schedule: Q04DX004 (sc), vehicle: saline with Tween-80
[5] = dose: 1200.0 mg/kg/injection, schedule: Q04DX004 (sc), vehicle: saline with Tween-80
[6] = dose: 200.0 mg/kg/injection, schedule: Q04DX004 (sc), vehicle: saline with Tween-80
[7] = dose: 400.0 mg/kg/injection, schedule: Q04DX004 (sc), vehicle: saline with Tween-80
[8] = dose: 150.0 mg/kg/injection, schedule: Q04DX004 (sc), vehicle: saline with Tween-80
[9] = dose: 150.0 mg/kg/injection, schedule: Q04DX004 (sc), vehicle: saline
[10] = dose: 300.0 mg/kg/injection, schedule: Q04DX004 (sc), vehicle: saline
[11] = dose: 75.0 mg/kg/injection, schedule: Q04DX004 (sc), vehicle: saline with Tween-80

## CCCC(=O)O.CCCC(=O)O.CCCC(=O)O.CCCC(=O)O.[Rh].[Rh]
dose: 4.0 mg/kg/injection, schedule: Q04DX004 (sc), vehicle: suspension in saline
  T/C: 99 % of control
dose: 8.0 mg/kg/injection, schedule: Q04DX004 (sc), vehicle: suspension in saline
  T/C: 118 % of control

## O=C1c2ccccc2C(=O)c2c(NCCNCCO)ccc(O)c21
dose: 12.5 mg/kg/injection, schedule: Q04DX004 (sc), vehicle: saline
  T/C: 104 % of control
[1]
  T/C: 105 % of control
[2]
  T/C: 74 % of control

## CNC1C(O)C(OC2C(N)CC(N)C(OC3OC(C(C)O)C(O)C(O)C3N)C2O)OCC1(C)O (configuration not stated)
dose: 50.0 mg/kg/injection, schedule: Q04DX004 (ip), vehicle: saline
  T/C: 102 % of control

## O=C(c1cccnc1)c1cc(-c2ccccn2)c(=O)n2ccccc12
[3]
  T/C: 87 % of control
[4]
  T/C: 21 % of control
[5]
  T/C: 77 % of control
dose: 2400.0 mg/kg/injection, schedule: Q04DX004 (sc), vehicle: saline with Tween-80
  T/C: 83 % of control

## CC1=C/C(O)CC(=O)Cc2nc(co2)C(=O)N2CCC=C2C(=O)OC(C(C)C)C(C)/C=C\C(=O)NC/C=C\1 (configuration not stated)
dose: 150.0 mg/kg/injection, schedule: Q04DX004 (sc), vehicle: Klucel (hydroxypropylcellulose) (HPC)
  T/C: 66 % of control
dose: 300.0 mg/kg/injection, schedule: Q04DX004 (sc), vehicle: Klucel (hydroxypropylcellulose) (HPC)
  T/C: 92 % of control
dose: 600.0 mg/kg/injection, schedule: Q04DX004 (sc), vehicle: Klucel (hydroxypropylcellulose) (HPC)
  T/C: 54 % of control
dose: 1200.0 mg/kg/injection, schedule: Q04DX004 (sc), vehicle: Klucel (hydroxypropylcellulose) (HPC)
  T/C: 85 % of control

## CNC(=O)ON(C(C)=O)C(=O)NC
[1]
  T/C: 114 % of control
dose: 50.0 mg/kg/injection, schedule: Q04DX004 (sc), vehicle: saline
  T/C: 80 % of control
[2]
  T/C: 56 % of control

## O=C(CN1CCOCC1)Nc1nc(-c2ccc(Cl)cc2)cs1
dose: 50.0 mg/kg/injection, schedule: Q04DX004 (ip), vehicle: saline with Tween-80
  T/C: 60 % of control
dose: 100.0 mg/kg/injection, schedule: Q04DX004 (ip), vehicle: saline with Tween-80
  T/C: 76 % of control
dose: 200.0 mg/kg/injection, schedule: Q04DX004 (ip), vehicle: saline with Tween-80
  T/C: 73 % of control
dose: 400.0 mg/kg/injection, schedule: Q04DX004 (ip), vehicle: saline with Tween-80
  T/C: 101 % of control
dose: 800.0 mg/kg/injection, schedule: Q04DX004 (ip), vehicle: saline with Tween-80
  T/C: 94 % of control

## COC1/C=C/C=C(/C)Cc2cc(O)c(Cl)c(c2)N(C)C(=O)CC(OC(=O)C(C)C)C2(C)OC2C(C)C2CC1(O)NC(=O)O2 (configuration not stated)
dose: 2.0 mg/kg/injection, schedule: Q04DX004 (sc), vehicle: saline + alcohol
  T/C: 82 % of control
dose: 4.0 mg/kg/injection, schedule: Q04DX004 (sc), vehicle: saline + alcohol
  T/C: 98 % of control
dose: 8.0 mg/kg/injection, schedule: Q04DX004 (sc), vehicle: saline + alcohol
  T/C: 72 % of control

## COc1ccc2c(NCCCCCCCCNc3c4ccccc4nc4cc(OC)ccc34)c3ccccc3nc2c1
dose: 31.25 mg/kg/injection, schedule: Q04DX004 (sc), vehicle: suspension in saline
  T/C: 65 % of control
dose: 62.5 mg/kg/injection, schedule: Q04DX004 (sc), vehicle: suspension in saline
  T/C: 72 % of control
dose: 125.0 mg/kg/injection, schedule: Q04DX004 (sc), vehicle: suspension in saline
  T/C: 47 % of control
dose: 250.0 mg/kg/injection, schedule: Q04DX004 (sc), vehicle: suspension in saline
  T/C: 73 % of control

## CO[C@@]12[C@H](COC(N)=O)C3=C(C(=O)C(C)=C(N)C3=O)N1C[C@@H]1N[C@@H]12
dose: 1.5 mg/kg/injection, schedule: Q04DX004 (sc), vehicle: saline
  T/C: 47 % of control and 52 % of control and 71 % of control
dose: 3.0 mg/kg/injection, schedule: Q04DX004 (sc), vehicle: saline
  T/C: -35 % of control and -23 % of control and -13 % of control
dose: 6.0 mg/kg/injection, schedule: Q04DX004 (sc), vehicle: saline
  T/C: -86 % of control

## COc1cc(O)c2c(O)c3c(c4c2c1[C@]1(C4)C(C)=CCCC1(C)C)[C@H](O)[C@@]1(O)CC(=O)C(C(N)=O)=C(O)[C@@]1(O)C3=O
dose: 9.4 mg/kg/injection, schedule: Q04DX004 (ip), vehicle: saline with Tween-80
  T/C: 59 % of control
dose: 18.8 mg/kg/injection, schedule: Q04DX004 (ip), vehicle: saline with Tween-80
  T/C: 87 % of control
dose: 37.5 mg/kg/injection, schedule: Q04DX004 (ip), vehicle: saline with Tween-80
  T/C: 101 % of control

## Nc1nc2ccc(NCc3ccc(C(=O)NC(CCC(=O)O)C(=O)O)cc3)cc2c(=O)[nH]1 (configuration not stated)
[6]
  T/C: 92 % of control
[7]
  T/C: 105 % of control

## CCOC(=O)C1(c2ccccc2)C(=O)Oc2ccccc21 (configuration not stated)
[8]
  T/C: 83 % of control
[3]
  T/C: 98 % of control
[4]
  T/C: 117 % of control
[5]
  T/C: 80 % of control

## COc1cc(Cc2nccc3cc(OC)c(OC)cc23)c(C(C)=O)cc1OC
dose: 75.0 mg/kg/injection, schedule: Q04DX004 (sc), vehicle: saline
  T/C: 86 % of control
[9]
  T/C: 84 % of control
[10]
  T/C: 55 % of control
dose: 600.0 mg/kg/injection, schedule: Q04DX004 (sc), vehicle: saline
  T/C: 33 % of control

## COc1cc(C2c3cc4c(cc3C(O)C(CO)C2CO)OCO4)cc(OC)c1OC (configuration not stated)
[6]
  T/C: 72 % of control
[7]
  T/C: 49 % of control
dose: 800.0 mg/kg/injection, schedule: Q04DX004 (sc), vehicle: saline with Tween-80
  T/C: 96 % of control
dose: 1600.0 mg/kg/injection, schedule: Q04DX004 (sc), vehicle: saline with Tween-80
  T/C: 30 % of control

## C[C@@H]1CC[C@]2(C)CC[C@]3(C)C(=CC[C@@H]4[C@@]5(C)CC[C@@H](OC(=O)c6ccc(O)cc6)C(C)(C)[C@@H]5C[C@H](O)[C@]43C)[C@@H]2[C@H]1C(=O)O
dose: 0.62 mg/kg/injection, schedule: Q04DX004 (sc), vehicle: saline with Tween-80
  T/C: 79 % of control
dose: 1.25 mg/kg/injection, schedule: Q04DX004 (sc), vehicle: saline with Tween-80
  T/C: 109 % of control
dose: 2.5 mg/kg/injection, schedule: Q04DX004 (sc), vehicle: saline with Tween-80
  T/C: 59 % of control

## O=C(O)[C@H](Cc1ccccc1)N1C(=O)c2ccccc2C1=O
dose: 150.0 mg/kg/injection, schedule: Q04DX004 (ip), vehicle: DMSO
  T/C: 180 % of control
dose: 300.0 mg/kg/injection, schedule: Q04DX004 (ip), vehicle: DMSO
  T/C: 97 % of control

## COc1cc2c3c(cccc3c1)C(=O)N(CCN(C)C)C2=O
dose: 37.5 mg/kg/injection, schedule: Q04DX004 (sc), vehicle: saline with Tween-80
  T/C: 72 % of control
[11]
  T/C: 98 % of control
[8]
  T/C: 74 % of control
[3]
  T/C: 105 % of control

## CN(N=O)C(=O)N[C@@H](C=O)[C@@H](O)[C@H](O)[C@H](O)CO
[9]
  T/C: 111 % of control
[10]
  T/C: 38 % of control

## CO[C@H]1C[C@@H]2CC[C@@H](C)[C@@](O)(O2)C(=O)C(=O)N2CCCC[C@H]2C(=O)O[C@H]([C@H](C)C[C@@H]2CC[C@@H](O)[C@H](OC)C2)CC(=O)[C@H](C)C=C(C)[C@@H](O)[C@@H](OC)C(=O)[C@H](C)C[C@H](C)/C=C/C=C/C=C1C
dose: 200.0 mg/kg/injection, schedule: Q01DX010 (sc), vehicle: saline with Tween-80
  T/C: 84 % of control
dose: 400.0 mg/kg/injection, schedule: Q01DX010 (sc), vehicle: saline with Tween-80
  T/C: 40 % of control
dose: 800.0 mg/kg/injection, schedule: Q01DX010 (sc), vehicle: saline with Tween-80
  T/C: 59 % of control
dose: 1600.0 mg/kg/injection, schedule: Q01DX010 (sc), vehicle: saline with Tween-80
  T/C: 25 % of control

## c1ccc2c(c1)-c1ccccc1C1NC21 (configuration not stated)
[11]
  T/C: 41 % of control

## OCC(O)C(O)C(O)C(O)CO (configuration not stated)
dose: 75.0 mg/kg/injection, schedule: Q04DX004 (ip), vehicle: saline
  T/C: 104 % of control
dose: 150.0 mg/kg/injection, schedule: Q04DX004 (ip), vehicle: saline
  T/C: 115 % of control
dose: 300.0 mg/kg/injection, schedule: Q04DX004 (ip), vehicle: saline
  T/C: 82 % of control
dose: 600.0 mg/kg/injection, schedule: Q04DX004 (ip), vehicle: saline
  T/C: 90 % of control

## Cc1nnc2ncccn12
[2]
  T/C: 73 % of control and 84 % of control
dose: 200.0 mg/kg/injection, schedule: Q04DX004 (sc), vehicle: saline
  T/C: 69 % of control and 84 % of control
dose: 400.0 mg/kg/injection, schedule: Q04DX004 (sc), vehicle: saline
  T/C: 72 % of control and 76 % of control

From PubChem BioAssay AID208 (DTP/NCI, 2004)
